Reference: article PMC9694159 (International Journal of Molecular Sciences, 2022)
Values joined by “and” are separate entries in the source; they are usually repeats but may differ in a detail not shown here. Equal values may be shown once. Read-outs that look alike come from different tables or passages of the source.

Key:
HSA = details: cited from earlier work
[1] = biological target: T1, human serum albumin (HSA) (Homo sapiens, UniProt P02768); experiment: UV-Vis spectroscopic studies: HSA-induced increase in the absorbance of Heme site ligands; format: binding; details: for Kd at 5 μM: human, human serum albumin (HSA) solution in PBS; for Higher binding constant by Hyperquad evaluation of UV-Vis data: compared with quenching studies and Scatchard plot evaluation
T1 construct: purchased Merck (Darmstadt, Germany) A1653
T1 sequence (P02768 25-609): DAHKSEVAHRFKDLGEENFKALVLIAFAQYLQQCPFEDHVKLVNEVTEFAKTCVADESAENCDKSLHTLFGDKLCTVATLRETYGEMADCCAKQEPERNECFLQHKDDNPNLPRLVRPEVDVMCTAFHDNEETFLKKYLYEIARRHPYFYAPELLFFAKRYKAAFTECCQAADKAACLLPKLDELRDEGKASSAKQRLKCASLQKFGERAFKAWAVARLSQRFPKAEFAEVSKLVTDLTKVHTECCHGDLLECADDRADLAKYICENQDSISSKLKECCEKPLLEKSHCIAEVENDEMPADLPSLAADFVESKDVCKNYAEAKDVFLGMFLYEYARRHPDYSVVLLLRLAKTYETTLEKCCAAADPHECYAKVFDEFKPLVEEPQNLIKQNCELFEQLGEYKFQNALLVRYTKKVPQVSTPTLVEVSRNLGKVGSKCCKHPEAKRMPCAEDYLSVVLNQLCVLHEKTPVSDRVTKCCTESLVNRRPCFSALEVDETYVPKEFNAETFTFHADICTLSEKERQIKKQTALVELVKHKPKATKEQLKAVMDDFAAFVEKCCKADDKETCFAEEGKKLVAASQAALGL
Protocol: UV-Vis spectra were recorded in PBS (pH 7.4) at 25 °C, employing a Jasco V730 UV-Vis spectrophotometer (Tokyo, Japan). Absorption spectra of Heme site ligands (5.0 μM each) have been recorded without and with increasing concentrations of HSA (0.0, 0.2, 0.5, 0.7, 1.0, 1.5, 2.0, 5.0, 10, and 15 μM). Binding constants (K) of ligand–albumin complexes were determined based on the HSA-induced increase in their absorbance (at 480 nm for BIL, at 390 nm for BVD, at 400 nm for HEM, and at 460 nm for MO). […] Binding constants (K; unit: L/mol) were calculated with linear and non-linear fitting, using the Scatchard equation [58] and the Hyperquad2006 software, respectively. The Scatchard equation for 1:1 binding model follows:(1) (A−A0)/[HSA]0=(Aligand−HSA−A0)×K−(A−A0)×K where A0 and A are the absorbance values of the ligand in the absence and presence of HSA, respectively; Aligand-HSA is the absorbance when each ligand molecule bound to HSA, and [HSA] is the concentration of albumin (unit: mol/L).
The following equations are implemented in the Hyperquad program code: (2) aLIGAND+bHSA ↔LIGANDaHSAb (3) βab=[LIGANDaHSAb]/[LIGAND]^a[HSA]^b where a and b indicate the stoichiometry associated with the equilibria in the solution. All equilibrium constants are defined as overall association constants (β):(4) LIGAND+HSA ↔LIGAND HSA; β1=[LIGAND HSA]/[LIGAND][HSA] (5) 2 LIGAND+HSA ↔LIGAND2 HSA; β2=[LIGAND2HSA]/[LIGAND]^2[HSA] (6) aLIGAND+HSA ↔LIGANDaHSA; βa=[LIGANDaHSA]/[LIGAND]^a[HSA]
The stepwise association constants (K) are defined by β:(7) β1=K1; β2=K1×K2; βa=K1×K2×…×Ka
During data evaluation the stoichiometry and association constants of the ligand binding process were calculated using the lowest standard deviation model.

WAR–HSA complex = biological target: T2, WAR–HSA complex (Homo sapiens, UniProt P02768); experiment: Effects of ligands on the fluorescence emission signal of WAR–HSA complex; format: binding; details: WAR 1 μM, HSA 3.5 μM, PBS pH 7.4, λex 317 nm; for Effect on the fluorescence emission signal of WAR (WAR–HSA complex): ligand 0–10 μM, λem 379 nm
T2 construct: purchased Merck (Darmstadt, Germany) A1653
T2 sequence (P02768 25-609, one chain of several): as the sequence (P02768 25-609) above

WAR–HSA interaction [2] = biological target: T3, WAR–HSA interaction (Homo sapiens, UniProt P02768); experiment: Ultrafiltration: filtered fraction of WAR in the presence of HSA and ligands; format: binding; details: WAR 1.0 μM, HSA 5.0 μM
T3 construct: purchased Merck (Darmstadt, Germany) A1653
T3 sequence (P02768 25-609): as above
Protocol: Amicon Ultra-0.5 centrifugal filters (Merck, Darmstadt, Germany) with 30 kDa molecular weight cut-off (MWCO) value were applied. […] Before ultrafiltration, filter units were washed once with water (500 μL) then once with PBS (500 μL). […] A 500 μL aliquot of samples was transferred to the filter and centrifuged for 10 min at 7500 g and 25 °C (fixed angle rotor).
(§1) Chromatographic data were evaluated employing ChromNAV2 software (Jasco, Tokyo, Japan). […] Briefly, samples (20 μL) were driven through a guard column (SecurityGuard C18, 4.0 × 3.0 mm; Phenomenex, Torrance, CA, USA) linked to a Nova-Pak C18 analytical column (150 × 3.9 mm, 4 μm; Waters, Milford, MA, USA). The isocratic elution was performed at room temperature with 1.0 mL/min flow rate applying sodium phosphate buffer (20 mM, pH 7.0), methanol, and acetonitrile (70:25:5 v/v%) as the mobile phase.

[3] = biological target: T1, human serum albumin (HSA); experiment: Fluorescence quenching of HSA by Heme site ligands; format: binding; details: HSA 2 μM; for Kd / Fluorescence Quenching Hyperquad logK: K unit L/mol; for Kd: read-out: Fluorescence Quenching Hyperquad logK (converted); for Fluorescence Quenching Stern–Volmer Plot logKSV: KSV unit L/mol
Protocol: Fluorescence spectra were recorded in PBS (pH 7.4) at 25 °C, employing a Hitachi F-4500 fluorometer (Tokyo, Japan). Binding constants of BIL, BVD, HEM, and MO were also determined based on fluorescence quenching studies (λex = 295 nm). Emission spectra of HSA (2.0 μM) were recorded in the absence and presence of the increasing concentrations of Heme site ligands (0.0, 0.5, 1.0, 2.0, 3.0, 5.0, 7.0, 10, and 15 μM). Before the evaluation of emission intensity data at 340 nm, the inner-filter effect of ligand molecules was corrected using the following equation [60, 61]:(8) Icor=Iobs×e^(Aex+Aem)/2 where Icor and Iobs are the corrected and observed fluorescence emission intensities, respectively; Aex and Aem are the absorbance values of Heme site ligands at 295 and 340 nm, respectively.

WAR–HSA interaction [4] = biological target: T3, WAR–HSA interaction; experiment: Ultracentrifugation: WAR in the supernatant in the presence of HSA and BIL or MO; format: binding; details: WAR 1.0 μM, HSA 3.0 μM, ligand 5 or 20 μM, PBS pH 7.4; 170,000× g, 16 h, 20 °C; HPLC-FLD
Protocol: With the optimal conditions of ultracentrifugation, we can sediment the albumin fraction of a solution without the disruption of ligand–HSA interactions. Consequently, the free fraction of a ligand can be quantified from the supernatant. […] In 11 × 34 mm PC tubes (Beckman Coulter, Brea, CA, USA), a 900 μL aliquot of samples was centrifuged for 16 h at 170,000× g and 20 °C applying a Beckman Coulter Optima MAX-XP tabletop ultracentrifuge (with MLA-130 fixed-angle rotor). Then a 200 μL volume of the supernatant was carefully removed and directly analyzed by HPLC-FLD (see in Section 3.6).
as §1, with “We applied an integrated HPLC system (Jasco, Tokyo, Japan) built up from an autosampler (AS-4050), a binary pump (PU-4180), and a fluorescence detector (FP-920). Chromatographic” for “Chromatographic”

[5] = cited from earlier work
[6] = linear fitting, whole ligand range 0–15 μM, PBS pH 7.4, λex 295 nm, λem 340 nm, mean ± SEM
[7] = linear fitting, K unit L/mol, ligand 5 μM, HSA 0–15 μM, PBS pH 7.4, 25 °C, mean ± SEM, read-out: UV-Vis Spectroscopy Scatchard Plot logK (converted)
[8] = non-linear fitting, K unit L/mol, ligand 5 μM, HSA 0–15 μM, PBS pH 7.4, 25 °C, mean ± SEM, read-out: UV-Vis Spectroscopy Hyperquad logK (converted)
[9] = non-linear fitting, whole ligand range 0–15 μM, PBS pH 7.4, mean ± SEM
[10] = evaluated in the 0.5–3 µM concentration range, PBS pH 7.4
[11] = evaluated in the 3–15 µM concentration range, PBS pH 7.4
[12] = ligand 0–20 μM, PBS pH 7.4, 30 kDa MWCO, HPLC-FLD

## CN(C)c1ccc(/N=N/c2ccc(S(=O)(=O)O)cc2)cc1 [MO, methyl orange]
HSA; K in L/mol
  logK of the MO–HSA complex: 5.4
HSA
  binding constant of the MO–HSA complex: 230000 L/mol
[1]; pH 7.4, linear fitting, K unit L/mol, ligand 5 μM, HSA 0–15 μM, PBS pH 7.4, 25 °C, mean ± SEM, read-out: UV-Vis Spectroscopy Scatchard Plot logK (converted)
  Kd at 5 μM: 64.6 µM
[1]; pH 7.4, non-linear fitting, K unit L/mol, ligand 5 μM, HSA 0–15 μM, PBS pH 7.4, 25 °C, mean ± SEM, read-out: UV-Vis Spectroscopy Hyperquad logK (converted)
  Kd at 5 μM: 18.2 µM
WAR–HSA complex
  Effect on the fluorescence emission signal of WAR (WAR–HSA complex): strongly reduced
WAR–HSA interaction [2]; ligand 1 μM
  Effect on the filtered fraction of WAR (ultrafiltration): significantly reduced
WAR–HSA interaction [2]; ligand 2–20 μM
  Effect on the filtered fraction of WAR (ultrafiltration): further gradual decrease
[3]; human, human serum albumin (HSA) solution in PBS, non-linear fitting, whole ligand range 0–15 μM, PBS pH 7.4, mean ± SEM
  Kd: 14.8 µM
[3]; [6]
  Fluorescence Quenching Stern–Volmer Plot logKSV: 4.76 ± 0.02
WAR–HSA interaction [4]
  Effect on the unbound fraction of WAR in the supernatant (ultracentrifugation): considerably decreased

## CC(=O)CC(c1ccccc1)c1c(O)c2ccccc2oc1=O (stereo not drawn) [WAR, warfarin]
HSA; spectroscopic, affinity chromatography and ultracentrifugation experiments
  binding constant (K) of WAR–HSA complex: approximately 2 × 10^5 L/mol
[5]
  plasma protein binding: ≈ 99%

## C=CC1=C(C)/C(=C/C2=NC(=C\c3[nH]c(/C=C4\NC(=O)C(C)=C4C=C)c(C)c3CCC(=O)O)/C(CCC(=O)O)=C2C)NC1=O [BVD, biliverdin]
HSA; K in L/mol
  logK of the BVD–HSA complex: ≈ 6
HSA
  binding constant of the BVD–HSA complex: approximately 10^6 L/mol
[1]; [7]
  Kd: 11 µM
[1]; [8]
  Kd: 2.82 µM
WAR–HSA complex
  Effect on the fluorescence emission signal of WAR (WAR–HSA complex): strongly reduced
[3]; [6]
  Fluorescence Quenching Stern–Volmer Plot logKSV: 5.37 ± 0.03
[3]; [9]
  Kd: 3.55 µM

## hemin
[1]
  Higher binding constant by Hyperquad evaluation of UV-Vis data: approximately 100 fold
[1]; linear fitting, K unit L/mol, ligand 5 μM, HSA 0–15 μM, PBS pH 7.4, 25 °C, mean ± SEM
  UV-Vis Spectroscopy Scatchard Plot logK: 5.74 ± 0.04
[1]; non-linear fitting, K unit L/mol, ligand 5 μM, HSA 0–15 μM, PBS pH 7.4, 25 °C, mean ± SEM
  UV-Vis Spectroscopy Hyperquad logK: 7.4 and 7.35 ± 0.03
WAR–HSA complex
  Effect on the fluorescence emission signal of WAR (WAR–HSA complex): strongly reduced
WAR–HSA interaction [2]; ligand 1–5 μM
  Effect on the filtered fraction of WAR (ultrafiltration): decreased
WAR–HSA interaction [2]; ligand 10 and 20 μM
  Effect on the filtered fraction of WAR (ultrafiltration): gradual elevation
[3]; [10]
  Fluorescence Quenching Hyperquad logK: 5.34 ± 0.01
  Fluorescence Quenching Stern–Volmer Plot logKSV: 5.23 ± 0.02
[3]; [11]
  Fluorescence Quenching Hyperquad logK: 5.53 ± 0.02
  Fluorescence Quenching Stern–Volmer Plot logKSV: 5.55 ± 0.03
[3]; [6]
  Fluorescence Quenching Stern–Volmer Plot logKSV: 5.54 ± 0.02
[3]; [9]
  Fluorescence Quenching Hyperquad logK: 5.49 ± 0.02

## C=CC1=C(C)c2cc3[n-]c(cc4[n-]c(cc5nc(cc1n2)C(C)=C5C=C)c(C)c4CCC(=O)O)c(CCC(=O)O)c3C.[Fe+2] [heme]
HSA; Site I ligands: abacavir, efavirenz, zidovudine, furosemide, indomethacin, phenylbutazone
  Effect on the binding affinity of certain Site I ligands toward HSA: strongly decrease
HSA
  Effect on the binding constant of the WAR–HSA complex: only slightly reduced

## CCCCCCCCCCCCCCCCCC(=O)O [stearic acid]
WAR–HSA complex; fatty acid 0–10 μM
  Increase in the emission intensity at 379 nm (WAR–HSA complex): ~2.5 fold
WAR–HSA interaction [2]; [12]
  Effect on the filtered fraction of WAR (ultrafiltration): decreased

## C=CC1=C(C)/C(=C/c2[nH]c(Cc3[nH]c(/C=C4\NC(=O)C(C)=C4C=C)c(C)c3CCC(=O)O)c(CCC(=O)O)c2C)NC1=O [BIL, bilirubin]
[1]
  Higher binding constant by Hyperquad evaluation of UV-Vis data: approximately 100 fold
[1]; [7]
  Kd: 1.48 µM
[1]; [8]
  Kd: 0.0295 µM
WAR–HSA complex
  Effect on the fluorescence emission signal of WAR (WAR–HSA complex): strongly reduced
WAR–HSA interaction [2]; [12]
  Effect on the filtered fraction of WAR (ultrafiltration): strongly increased
WAR–HSA interaction [2]; ligand 5 μM
  Effect on albumin binding of WAR (ultrafiltration): disrupted
WAR–HSA interaction [2]; ligand 20 μM
  Effect on albumin binding of WAR (ultrafiltration): almost completely abolished
[3]; [6]
  Fluorescence Quenching Stern–Volmer Plot logKSV: 5.26 ± 0.01
[3]; [9]
  Kd: 4.47 µM
WAR–HSA interaction [4]
  Effect on the unbound fraction of WAR in the supernatant (ultracentrifugation): significantly increased
